The results in this text go back to US4000262A, “5-Epi-amino and 5-epi-azido-4,6-di-O-(aminoglycosyl)-2,5-dideoxystreptamines 1-N-alkyl-5-epi-amino and 1-N-alkyl-5-epi-azido-4,6-di-O-(aminoglycosyl)-2,5-dideoxystreptamines” (priority 1975, dated 1976).

In brackets after ≈: the same amount, converted by molar mass. Where two headings read alike, the source gives them in different places.

The term MIC denotes the least concentration at which growth counts as inhibited. As usually defined, the LD50 is the dose expected to kill half of the subjects tested.

The subject of data set [1] is gram positive bacteria and gram negative bacteria. The experiment in a line: antibacterial activity (general statements, standard dilution tests). The class given is cell-based. To be noted: gram negative organisms resistant to the 5-hydroxy precursors.
The test system of data set [2] is Streptococcus pyogenes C. Put plainly: in vitro minimal inhibitory concentration, standard tube dilution method. It counts as cell-based. The source says: In Table 1, set forth below is shown the in vitro minimal inhibitory concentration (MIC) of gentamicin C2a against representative gram-positive and gram-negative bacteria. The results are derived using the standard tube dilution method in Mueller-Hinton broth.
In Table 2, set forth below is shown the in vitro minimal inhibitory concentration (MIC) of gentamicin C2b against representative gram-positive and gram-negative bacteria. The results are derived using the standard tube dilution method in Mueller-Hinton broth.

Data set [3] in a line: acute intravenous toxicity. To be noted: mouse, in vivo, male CF-1 mice weighing 20 grams each.
For data set [4], the system named is gram-positive and gram-negative bacteria. Put plainly: in vitro antibacterial spectrum / activity compared with gentamicin C components. It counts as cell-based. The conditions noted are these: as the free base.

`CNC1C(O)C(OC2C(N)CC(N)C(OC3OC(CN)CCC3N)C2N)OCC1(C)O` (stereo not drawn) [5-epi-amino-5-deoxygentamicin C1a]: the cidal activity result in data set [1] is “cidal against certain gram negative organisms which are resistant to the 5-hydroxy precursors”.

With `CN[C@@H]1[C@@H](O)[C@@H](O[C@@H]2[C@@H](O)[C@H](O[C@H]3O[C@H]([C@H](C)N)CC[C@H]3N)[C@@H](N)C[C@H]2N)OC[C@]1(C)O` [gentamicin C2a], inhibition of growth in data set [2] (MIC) required 7.5 µg/mL (≈ 16.2 µM). Moreover, the LD50 in data set [3] was determined as 110 mg/kg. Further, in data set [4], the “activity relative to the gentamicin "C" complex” value is “about 74%”.

For the compound `CNC[C@@H]1CC[C@@H](N)[C@@H](O[C@H]2[C@H](O)[C@@H](O[C@H]3OC[C@](C)(O)[C@H](NC)[C@H]3O)[C@H](N)C[C@@H]2N)O1` [gentamicin C2b], the MIC in data set [2] (Mueller-Hinton broth, read-out: MIC) was 3 µg/mL (≈ 6.47 µM).
